Tested on: saphenous nerve afferents
Assay: Saphenous nerve afferent recordings after topical application to receptive field
Assay type: in vivo, rat
Source text: Antisense and mis-sense oligonucleotides were 22-mers with phosphorothioate bonds at the last two positions at 5′ and 3′ ends (MWG Biotech, Ebersberg, Germany). Antisense extended from base −10 to base +12 relative to the start of the open reading frame for the rat TRPM8 gene: 5′ C*T*CGAAGGACATCTTGCCGT*G*G 3′, where * represents phosphorothioate linkages. Mis-sense was designed with 4 inversions of C/G or A/T as appropriate at residues 3, 11, 14 and 22, preserving overall G/C content. BLAST searches of both oligonucleotides indicated no significant complementarity to any known gene sequence. 14-day or 7-day osmotic minipumps (for CCI experiments or naïve electrophysiology experiments respectively—Alzet Minipump, models 2002, 2001; Charles River, UK) containing oligonucleotides (1 μg/μl in sterile saline) were connected to canulae inserted under the dura of the spinal cord to level L5/6 and produced a predicted infusion rate of 0.5 μl/h. CCI surgery was performed at the same time as minipump implantation. Sensory tests were carried out to assess the time-course of behavioural sensitisation in animals which had also undergone a CCI injury. Icilin was applied topically rather than intrathecally so as to prevent any interference with the infusion canula. Peripheral nerve recordings and tissue harvesting were carried out after an interval of 4-5 days to allow time for protein knockdown.
Peripheral: Recordings of saphenous (sensory) nerve were made in naïve animals (n=7) to assess the effects of topical icilin on primary afferents. In addition, recordings were carried out on animals which had undergone TRPM8 antisense or mis-sense treatment beginning 4-5 days previously. Rats were anaesthetised (with 0.6 ml 25% urethane/100 g, i.p.) and the saphenous nerve was exposed and dissected from its associated vein and artery. Further dissection under liquid paraffin enabled identification of afferent preparations comprising a small number of fibres. The conduction velocity of single identified afferent fibres was determined using bipolar electrodes and the peripheral stimulus technique^[43]. Following isolation of preparations, icilin (200 μM in water with 0.2% DMF), (−)-menthol (4 mM in 25% ethanol) resiniferatoxin (1 mM in ethanol) or vehicle alone were applied to the hindlimb receptive fields and neuronal responses recorded using the Chart programme (version 3.6). Central: Recordings of spinal dorsal horn neurons were made in CCI animals, as described previously^[39]. Following halothane induction, the jugular vein and trachea were canulated and intravenous anaesthetic delivered: α-chloralose ([…], Fisher) and urethane ([…], Sigma), with small supplementary doses of α-chloralose as required throughout the experiment. Core body temperature was maintained at 37-38° C. by means of a thermostatically controlled heated blanket. The animal was placed in a stereotaxic frame, and the thoracolumbar spinal column was supported using three pairs of swan-necked clamps. A laminectomy was performed at L2-L5, and agar (2% in saline at 37° C.) was delivered over exposed cord to increase mechanical stability. Above the recording region the agar and spinal cord dura were removed and liquid paraffin poured into the pool. Extracellular recordings were made from single multireceptive neurons in laminae I-IV through the centre barrel of a seven-barrelled glass microelectrode filled with 4M NaCl (tip-diameter […], DC resistance 5-8 MΩ). The receptive fields of hair-follicle innervated neurons on the distal hindlimb were identified by an innocuous brush stimulus^[39]. Icilin (200 μM in water with 0.2% DMF) was applied peripherally to the receptive field of individual recorded neurons, and the effect on neuronal response to a rotating brush was recorded and analysed using Spike2 programme (Version 3.2, CED). […]

[1] = antisense-treated animals, topical icilin 200 μM, (−)-menthol 4 mM, resiniferatoxin 1 mM
[2] = mis-sense-treated animals, topical icilin 200 μM, (−)-menthol 4 mM
[3] = mis-sense-treated animals, topical icilin 200 μM, (−)-menthol 4 mM, resiniferatoxin 1 mM

Row | SMILES | activation of afferents (antisense-treated animals, (−)-menthol 4 mM, 28 identified afferents recorded) | firing frequency after drug [1] | recorded fibres activated [2] | firing frequency after drug [3] | increase in firing frequency [3] | increase in firing frequency (antisense-treated animals, topical icilin 200 μM, resiniferatoxin 1 mM) | recorded slowly conducting fibres activated (antisense-treated naïve animals, icilin 200 μM topical, 3 out of 34) | recorded fine afferents with significant increase in firing frequency (icilin 200 μM to receptive field, naïve animals, 40 out of 185) | effect on large myelinated mechanoreceptors (icilin 200 μM, conduction velocities 6.8-15 ms^−1, n=43) | mean time to peak effect (icilin 200 μM, naïve animals) | firing frequency after drug (icilin 200 μM, naïve animals, baseline 4.5±2.5 Hz) | mean increase in firing frequency (icilin 200 μM, naïve animals, from baseline of 4.5±2.5 Hz)
1 | CC(C)[C@@H]1CC[C@@H](C)C[C@H]1O [(−)-menthol, 1R,2S,5R-(−)-menthol] | no obviously activated afferents | 4.8±1.9 Hz | 20% | 38.9±7.6 Hz | approximately 8 fold |  |  |  |  |  |  | 
2 | O=C1NC(c2cccc([N+](=O)[O-])c2)=CCN1c1ccccc1O [icilin, 1-(2′-hydroxyphenyl)-4-(3″-nitrophenyl)-1,2,3,6-tetrahydropyrimidin-2-one] |  | 12.7±0.6 Hz | 25% | 23.1±3.2 Hz | 7 fold | approximately 2 fold | 8.8% | 21.6% | unaffected | 3.3 ± 0.5 min | 31.6 Hz | 7 fold

Reference: US20100137344A1, “INDUCTION OF ANALGESIA IN NEUROPATHIC PAIN” (University Court of the University of Edinburgh, priority 2006, published 2010)
